Columns and labels:
[1] = target: human DA D3 receptor (Homo sapiens, UniProt P35462); assay: [3H]YM-09151-2 binding, CHOp-D3 cells; conditions: test drugs up to 10 µM; words give concentration range, 'low' = low nanomolar
[2] = target: T1, hNET (Homo sapiens, UniProt P23975); assay: cell-based; format: cell-based
[3] = target: T2, hSERT (Homo sapiens, UniProt P31645); assay: Superfusion release of preloaded [3H]5-HT from HEK-hSERT cells; format: cell-based
[4] = target: T3, h5-HT2C receptor (Homo sapiens, UniProt P28335); format: cell-based; conditions: data not shown
T3 sequence (P28335 33-458): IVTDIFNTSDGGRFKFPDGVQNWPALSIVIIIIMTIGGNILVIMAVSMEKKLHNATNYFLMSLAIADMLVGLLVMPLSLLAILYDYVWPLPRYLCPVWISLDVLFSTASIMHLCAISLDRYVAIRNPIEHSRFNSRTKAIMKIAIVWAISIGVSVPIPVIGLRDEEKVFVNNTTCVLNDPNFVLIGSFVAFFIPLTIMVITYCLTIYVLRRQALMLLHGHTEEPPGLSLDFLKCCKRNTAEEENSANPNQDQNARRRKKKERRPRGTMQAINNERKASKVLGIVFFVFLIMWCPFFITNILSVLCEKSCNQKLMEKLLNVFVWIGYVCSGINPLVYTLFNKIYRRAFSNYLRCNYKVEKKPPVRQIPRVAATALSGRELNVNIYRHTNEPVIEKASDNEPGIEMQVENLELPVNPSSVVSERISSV

[5] = target: T4, h5-HT2A receptor (Homo sapiens, UniProt P28223); assay: [125I]DOI binding, HEK-h5-HT2A; conditions: read-out: Inhibition of radioligand binding Ki ± sem, h5-HT2A [125I]DOI
[6] = target: human DA D1 receptor (Homo sapiens, UniProt P21728); assay: [3H]SCH23390 binding, LhD1 cells; conditions: test drugs up to the maximal concentration tested (10 µM)
[7] = target: T3, h5-HT2C receptor; assay: biochemical; format: binding; conditions: read-out: Inhibition of radioligand binding Ki ± sem, h5-HT2C [125I]DOI
[8] = target: T1, hNET; assay: biochemical; format: binding; conditions: read-out: Inhibition of [125I]RTI-55 binding Ki ± sem, hNET; HEK-hNET membranes
[9] = target: T5, hVMAT2 (Homo sapiens, UniProt Q05940); assay: Inhibition of [3H]5-HT uptake, HEK-hVMAT2 membrane preparation; format: biochemical; conditions: read-out: Inhibition of [3H]5-HT uptake IC50 ± sem, hVMAT2; 40 nM [3H]5-HT, 2 mM MgATP
[10] = target: human DA D2 receptor (Homo sapiens, UniProt P14416); format: binding; conditions: test drugs up to the maximal concentration tested (10 µM)
[11] = target: T6, human D4.4 receptor (Homo sapiens, UniProt P21917); format: binding; conditions: test drugs up to 10 µM; words give concentration range, 'low' = low nanomolar
T6 sequence (P21917 1-419): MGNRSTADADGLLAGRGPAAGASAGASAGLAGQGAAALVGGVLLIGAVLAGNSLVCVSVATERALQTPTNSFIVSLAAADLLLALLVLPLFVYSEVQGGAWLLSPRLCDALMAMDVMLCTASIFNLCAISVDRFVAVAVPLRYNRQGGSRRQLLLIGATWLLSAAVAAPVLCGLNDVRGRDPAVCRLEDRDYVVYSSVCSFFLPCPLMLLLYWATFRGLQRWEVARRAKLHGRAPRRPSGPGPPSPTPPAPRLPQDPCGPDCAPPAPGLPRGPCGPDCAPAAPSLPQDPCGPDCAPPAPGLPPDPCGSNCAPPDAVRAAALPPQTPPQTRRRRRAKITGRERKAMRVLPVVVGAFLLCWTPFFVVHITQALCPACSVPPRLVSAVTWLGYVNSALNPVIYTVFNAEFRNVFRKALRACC

[12] = target: T7, h5-HT1A receptor (Homo sapiens, UniProt P08908); assay: [3H]8-OH-DPAT binding, HEK-h5-HT1A; conditions: read-out: Inhibition of radioligand binding Ki ± sem, h5-HT1A [3H]8OH-DPAT
T7 sequence (P08908 1-422): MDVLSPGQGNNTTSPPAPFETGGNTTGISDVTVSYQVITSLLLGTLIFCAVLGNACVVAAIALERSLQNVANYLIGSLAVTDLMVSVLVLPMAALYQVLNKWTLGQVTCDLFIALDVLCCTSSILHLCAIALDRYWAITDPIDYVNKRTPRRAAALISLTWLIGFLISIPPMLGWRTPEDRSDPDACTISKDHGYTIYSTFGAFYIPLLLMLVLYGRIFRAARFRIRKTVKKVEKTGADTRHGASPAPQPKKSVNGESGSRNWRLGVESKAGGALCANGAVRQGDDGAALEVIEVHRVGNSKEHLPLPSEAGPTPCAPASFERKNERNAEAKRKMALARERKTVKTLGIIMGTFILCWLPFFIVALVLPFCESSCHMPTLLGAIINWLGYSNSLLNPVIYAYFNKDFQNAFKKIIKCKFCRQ

[13] = target: T2, hSERT; assay: Inhibition of [3H]5-HT uptake, intact HEK-hSERT cells; format: cell-based
[14] = target: T3, h5-HT2C receptor; assay: Inhibition of 5-HT-stimulated IP-1 formation; format: cell-based; conditions: 100 nM 5-HT; normalized to maximal inhibition by SB242084 (1 µM)
[15] = target: T8, hDAT (Homo sapiens, UniProt Q01959); assay: Inhibition of [3H]DA uptake, intact HEK-hDAT cells; format: cell-based
[16] = target: T7, h5-HT1A receptor; assay: Stimulation of [35S]GTPγS binding, HEK-h5-HT1A membranes; format: biochemical
[17] = target: T8, hDAT; assay: Inhibition of [125I]RTI-55 binding, HEK-hDAT membranes; conditions: read-out: Inhibition of [125I]RTI-55 binding Ki ± sem, hDAT; HEK-hDAT membranes
[18] = target: T4, h5-HT2A receptor; assay: Inhibition of 5-HT-stimulated IP-1 formation; format: cell-based; conditions: 100 nM 5-HT
[19] = target: T1, hNET; assay: Superfusion release of preloaded [3H]NE from HEK-hNET cells; format: cell-based
[20] = target: hSigma1 receptor (Homo sapiens, UniProt Q99720); assay: [3H]; format: binding; conditions: read-out: Inhibition of [3H]pentazocine binding Ki ± sem, hSigma1
[21] = target: T5, hVMAT2; assay: Superfusion release of preloaded [3H]NE from HEK-hVMAT2 cells; format: cell-based
[22] = target: T8, hDAT; assay: Superfusion release of preloaded [3H]DA from HEK-hDAT cells; format: cell-based

T4 sequence (P28223 whole entry): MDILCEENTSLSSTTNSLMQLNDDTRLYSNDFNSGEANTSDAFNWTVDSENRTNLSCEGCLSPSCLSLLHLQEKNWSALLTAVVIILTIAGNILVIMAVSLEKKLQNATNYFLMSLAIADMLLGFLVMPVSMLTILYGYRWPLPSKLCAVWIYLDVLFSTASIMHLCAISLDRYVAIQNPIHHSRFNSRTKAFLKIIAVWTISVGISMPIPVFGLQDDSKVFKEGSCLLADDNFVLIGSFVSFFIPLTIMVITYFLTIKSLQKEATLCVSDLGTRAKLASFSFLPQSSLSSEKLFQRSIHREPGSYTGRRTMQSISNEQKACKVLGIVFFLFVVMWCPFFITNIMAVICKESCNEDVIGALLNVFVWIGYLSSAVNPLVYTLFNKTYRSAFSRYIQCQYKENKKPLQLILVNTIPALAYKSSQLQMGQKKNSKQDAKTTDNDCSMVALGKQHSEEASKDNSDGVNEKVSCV
T8 sequence (Q01959 whole entry): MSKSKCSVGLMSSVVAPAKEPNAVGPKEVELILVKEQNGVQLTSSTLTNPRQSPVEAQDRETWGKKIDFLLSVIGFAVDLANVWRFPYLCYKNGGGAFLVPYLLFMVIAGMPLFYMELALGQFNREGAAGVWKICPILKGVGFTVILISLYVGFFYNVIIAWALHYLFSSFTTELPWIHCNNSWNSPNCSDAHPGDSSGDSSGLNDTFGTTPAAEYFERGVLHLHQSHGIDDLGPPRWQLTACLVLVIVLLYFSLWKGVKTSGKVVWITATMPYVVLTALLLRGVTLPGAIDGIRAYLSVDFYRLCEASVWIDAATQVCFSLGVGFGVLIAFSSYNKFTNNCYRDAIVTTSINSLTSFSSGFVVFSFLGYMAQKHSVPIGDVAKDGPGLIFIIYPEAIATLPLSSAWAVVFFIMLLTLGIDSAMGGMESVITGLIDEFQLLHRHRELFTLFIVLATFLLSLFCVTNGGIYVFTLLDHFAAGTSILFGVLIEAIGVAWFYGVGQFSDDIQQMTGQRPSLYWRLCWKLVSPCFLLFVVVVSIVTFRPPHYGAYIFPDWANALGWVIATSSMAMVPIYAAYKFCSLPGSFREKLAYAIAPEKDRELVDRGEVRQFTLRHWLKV
T2 sequence (P31645 whole entry, the tested form may be a part): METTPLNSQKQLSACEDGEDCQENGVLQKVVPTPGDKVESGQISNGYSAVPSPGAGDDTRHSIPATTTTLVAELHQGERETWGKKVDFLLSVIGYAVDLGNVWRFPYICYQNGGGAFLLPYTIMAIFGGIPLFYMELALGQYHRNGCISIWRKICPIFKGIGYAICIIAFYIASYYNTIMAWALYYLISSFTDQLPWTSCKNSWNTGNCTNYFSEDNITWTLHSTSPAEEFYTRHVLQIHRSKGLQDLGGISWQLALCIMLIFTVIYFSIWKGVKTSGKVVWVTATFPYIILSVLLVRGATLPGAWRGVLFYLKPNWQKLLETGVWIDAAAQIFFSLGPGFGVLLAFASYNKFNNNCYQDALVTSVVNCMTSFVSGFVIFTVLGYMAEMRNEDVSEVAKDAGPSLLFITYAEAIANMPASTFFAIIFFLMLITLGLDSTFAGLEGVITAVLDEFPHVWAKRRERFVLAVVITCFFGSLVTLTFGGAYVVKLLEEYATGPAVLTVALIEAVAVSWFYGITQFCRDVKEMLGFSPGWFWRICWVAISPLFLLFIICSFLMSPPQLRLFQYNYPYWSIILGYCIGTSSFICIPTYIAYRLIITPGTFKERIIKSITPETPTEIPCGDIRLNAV
T1 sequence (P23975 whole entry, the tested form may be a part): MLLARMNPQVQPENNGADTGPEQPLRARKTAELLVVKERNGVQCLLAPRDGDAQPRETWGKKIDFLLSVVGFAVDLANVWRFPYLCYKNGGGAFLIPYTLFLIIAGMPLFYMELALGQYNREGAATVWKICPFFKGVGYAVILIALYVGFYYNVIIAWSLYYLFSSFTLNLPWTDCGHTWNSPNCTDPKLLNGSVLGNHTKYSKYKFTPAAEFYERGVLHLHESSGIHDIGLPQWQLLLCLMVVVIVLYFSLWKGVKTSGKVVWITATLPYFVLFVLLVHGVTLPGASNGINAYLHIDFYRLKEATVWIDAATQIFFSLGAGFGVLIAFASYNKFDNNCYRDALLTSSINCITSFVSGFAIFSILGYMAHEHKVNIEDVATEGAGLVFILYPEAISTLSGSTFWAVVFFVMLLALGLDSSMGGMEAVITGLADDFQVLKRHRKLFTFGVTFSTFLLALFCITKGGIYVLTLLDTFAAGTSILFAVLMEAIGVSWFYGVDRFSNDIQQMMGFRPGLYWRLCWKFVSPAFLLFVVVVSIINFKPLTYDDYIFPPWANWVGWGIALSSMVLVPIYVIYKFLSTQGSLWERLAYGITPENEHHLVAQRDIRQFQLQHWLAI
T5 sequence (Q05940 whole entry): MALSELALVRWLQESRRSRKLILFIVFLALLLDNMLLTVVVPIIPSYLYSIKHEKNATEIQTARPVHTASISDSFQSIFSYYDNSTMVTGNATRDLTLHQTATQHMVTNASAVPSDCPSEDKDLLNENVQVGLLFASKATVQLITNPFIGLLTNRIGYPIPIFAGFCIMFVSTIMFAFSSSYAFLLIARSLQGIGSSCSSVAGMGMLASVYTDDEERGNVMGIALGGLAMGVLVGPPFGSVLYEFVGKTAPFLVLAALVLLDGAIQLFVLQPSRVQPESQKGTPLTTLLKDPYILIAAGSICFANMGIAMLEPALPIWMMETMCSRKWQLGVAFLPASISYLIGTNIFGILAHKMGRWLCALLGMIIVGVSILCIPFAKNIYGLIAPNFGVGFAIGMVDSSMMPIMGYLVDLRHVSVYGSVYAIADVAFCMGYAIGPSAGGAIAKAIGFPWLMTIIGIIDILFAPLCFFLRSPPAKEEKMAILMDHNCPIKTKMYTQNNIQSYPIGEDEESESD
human DA D2 receptor, sequence (P14416 whole entry): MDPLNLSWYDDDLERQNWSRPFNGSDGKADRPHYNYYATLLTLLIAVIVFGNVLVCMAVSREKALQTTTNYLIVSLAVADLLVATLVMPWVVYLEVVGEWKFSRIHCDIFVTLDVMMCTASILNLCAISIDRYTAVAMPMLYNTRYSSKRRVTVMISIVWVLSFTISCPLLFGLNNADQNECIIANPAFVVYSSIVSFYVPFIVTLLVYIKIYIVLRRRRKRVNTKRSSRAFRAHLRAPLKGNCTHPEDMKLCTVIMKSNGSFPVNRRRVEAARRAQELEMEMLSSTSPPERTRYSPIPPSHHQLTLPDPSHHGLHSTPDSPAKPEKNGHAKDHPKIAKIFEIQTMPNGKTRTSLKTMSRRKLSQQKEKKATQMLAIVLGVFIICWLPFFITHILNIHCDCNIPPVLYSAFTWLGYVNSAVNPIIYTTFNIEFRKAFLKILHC
hSigma1 receptor, sequence (Q99720 whole entry, the tested form may be a part): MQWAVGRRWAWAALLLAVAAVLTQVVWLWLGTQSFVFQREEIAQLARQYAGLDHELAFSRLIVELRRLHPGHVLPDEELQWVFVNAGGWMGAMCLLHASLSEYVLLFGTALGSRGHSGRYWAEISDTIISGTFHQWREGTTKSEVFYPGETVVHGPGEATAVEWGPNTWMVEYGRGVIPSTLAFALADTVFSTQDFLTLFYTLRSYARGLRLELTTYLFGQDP
human DA D3 receptor, sequence (P35462 whole entry): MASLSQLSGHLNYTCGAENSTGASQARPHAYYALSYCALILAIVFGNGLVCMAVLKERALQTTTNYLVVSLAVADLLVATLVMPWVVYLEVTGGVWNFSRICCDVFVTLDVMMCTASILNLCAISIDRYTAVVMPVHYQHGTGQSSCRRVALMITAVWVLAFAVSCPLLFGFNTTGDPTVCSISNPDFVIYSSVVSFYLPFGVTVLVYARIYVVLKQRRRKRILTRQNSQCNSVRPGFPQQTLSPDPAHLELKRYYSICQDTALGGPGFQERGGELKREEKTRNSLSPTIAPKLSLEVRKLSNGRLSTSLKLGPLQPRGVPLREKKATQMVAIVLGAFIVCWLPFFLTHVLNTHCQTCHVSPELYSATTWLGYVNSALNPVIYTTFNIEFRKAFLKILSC
human DA D1 receptor, sequence (P21728 whole entry): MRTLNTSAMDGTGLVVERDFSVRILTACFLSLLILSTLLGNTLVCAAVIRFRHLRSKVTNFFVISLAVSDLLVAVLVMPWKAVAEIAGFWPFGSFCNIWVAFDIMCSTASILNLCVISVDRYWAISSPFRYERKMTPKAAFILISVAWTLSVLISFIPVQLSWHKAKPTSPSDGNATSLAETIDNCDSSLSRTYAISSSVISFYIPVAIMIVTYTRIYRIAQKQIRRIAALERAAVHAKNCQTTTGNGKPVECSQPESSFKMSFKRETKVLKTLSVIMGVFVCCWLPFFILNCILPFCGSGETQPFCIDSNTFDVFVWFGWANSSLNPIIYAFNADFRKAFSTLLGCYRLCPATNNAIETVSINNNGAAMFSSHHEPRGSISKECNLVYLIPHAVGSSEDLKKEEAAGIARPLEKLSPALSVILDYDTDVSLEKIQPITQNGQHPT

## CNC(C)C(=O)c1ccccc1 (stereo not shown) [Methcathinone, methcathinone, reference compound]
[1]
  affinity for the [3H]YM-09151-2 binding site, DA D3 receptor: no measurable affinity
[2]; [125I]RTI-55 Ki / [3H]NE uptake IC50
  ratio of binding Ki to uptake IC50, hNET: 144
[2]; read-out: Inhibition of [3H]neurotransmitter uptake IC50 ± sem, hNET [3H]NE, 20 nM [3H]NE, intact cells
  IC50: 0.0311 ± 0.0051 µM
[3]; read-out: Drug-induced release of [3H]neurotransmitter EC50 ± sem, hSERT [3H]5-HT, superfusion, AUC
  EC50: > 100 µM
[3]; relative to maximal AUC induced by PCA (10 µM)
  % maximum release ± sem, hSERT [3H]5-HT: 21.1 ± 9.8%
[4]
  h5-HT2C agonist activity, inositol monophosphate: partial agonists with midmicromolar potencies
[5]
  Ki: 29.2 ± 3.3 µM
[6]
  affinity for the [3H]SCH23390 binding site, DA D1 receptor: no measurable affinity
[7]
  Ki: 16 ± 4.2 µM
[8]
  Ki: 4.48 ± 0.49 µM
[9]
  IC50: 117 ± 57 µM
[10]
  affinity for the [3H]YM-09151-2 binding site, DA D2 receptor: no measurable affinity
[11]
  affinity for the [3H]YM-09151-2 binding site, DA D4.4 receptor: no measurable affinity
[12]
  Ki: 29.1 ± 3.6 µM
[13]; [125I]RTI-55 Ki / [3H]5-HT uptake IC50
  ratio of binding Ki to uptake IC50, hSERT: > 7.4
[13]; read-out: Inhibition of [3H]neurotransmitter uptake IC50 ± sem, hSERT [3H]5-HT, 20 nM [3H]5-HT, intact cells
  IC50: 13.5 ± 2.9 µM
[14]
  h5-HT2C Inhibition of 5-HT-stimulated IP-1 formation % maximum inhibition ± sem: 17.5 ± 4.0%
[15]; [125I]RTI-55 Ki / [3H]DA uptake IC50
  ratio of binding Ki to uptake IC50, hDAT: 23
[15]; read-out: Inhibition of [3H]neurotransmitter uptake IC50 ± sem, hDAT [3H]DA, 20 nM [3H]DA, intact cells
  IC50: 0.144 ± 0.032 µM
[16]; normalized to the maximal stimulation by 5-HT
  h5-HT1A Stimulation of [35S]GTPγS binding % maximum stimulation ± sem: 52.8 ± 6.2%
[16]; read-out: h5-HT1A Stimulation of [35S]GTPγS binding EC50 ± sem
  EC50: 49 ± 21 µM
[17]
  Ki: 3.3 ± 1.1 µM
[18]; normalized to maximal inhibition by ketanserin (10 µM)
  h5-HT2A Inhibition of 5-HT-stimulated IP-1 formation % maximum inhibition ± sem: 99.63 ± 0.37%
[18]; read-out: h5-HT2A Inhibition of 5-HT-stimulated IP-1 formation IC50 ± sem
  IC50: 40 ± 9.5 µM
[19]; read-out: Drug-induced release of [3H]neurotransmitter EC50 ± sem, hNET [3H]NE, superfusion, AUC
  EC50: 0.228 ± 0.066 µM
[19]; relative to maximal AUC induced by METH (0.3 or 1 µM)
  % maximum release ± sem, hNET [3H]NE: 149 ± 42%
[20]
  Ki: 117 ± 40 µM
[21]
  Release of [3H]NE % maximum release ± sem or range, hVMAT2: 42 ± 10%
[21]; read-out: Drug-induced release of [3H]NE EC50 ± sem, hVMAT2, superfusion
  EC50: 11.6 ± 7.3 µM
[22]
  % maximum release ± sem, hDAT [3H]DA: 83.3 ± 4.9%
[22]; read-out: Drug-induced release of [3H]neurotransmitter EC50 ± sem, hDAT [3H]DA, superfusion, AUC
  EC50: 3.57 ± 0.68 µM
